Results from patent US6355799B1, “Substituted benzene compounds, process for their preparation, and herbicidal and defoliant compositions containing them” (ISK Americas Incorporated, priority 1997, dated 2002).

Legend:
Type in all cases: in vivo
[1] = test system: sicklepod (Cassia obtusifolia, CASOB); experiment: Post-emerge test, greenhouse herbicide activity screening; settings: post-emerge, 14 days after application, rating scale 0-100
Summary of the method: (§1)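 Herbicidal damage is scored 0 (none) to 100 (complete plant death) two weeks after a simulated field spray. Rates span 15–1000 g ai/ha, delivered in acetone at 187 l/ha. For post-emergence treatments, plants have 2–3 leaves and the spray carries 0.25% v/v non-ionic surfactant.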

[2] = test system: johnsongrass (Sorghum halepense, SORHA); experiment: as above; settings: post-emerge, 14 days after application, rating scale 0-100
Summary of the method: as §1

[3] = test system: redroot pigweed (Amaranthus retroflexus, AMARE); experiment: as above; settings: post-emerge, 14 days after application
Summary of the method: as §1

[4] = test system: ivyleaf morningglory (Ipomoea hederacea, IPOHE); experiment: as above; settings: post-emerge, 14 days after application, rating scale 0-100
Summary of the method: as §1

[5] = test system: barnyardgrass (Echinochloa crus-galli, ECHCG); experiment: as above; settings: post-emerge, 14 days after application, rating scale 0-100
Summary of the method: as §1

[6] = test system: lambsquarters (Chenopodium album, CHEAL); experiment: as above; settings: post-emerge, 14 days after application, rating scale 0-100
Summary of the method: as §1

[7] = test system: velvetleaf (Abutilon theophrasti, ABUTH); experiment: as above; settings: post-emerge, 14 days after application, rating scale 0-100
Summary of the method: as §1

[8] = test system: large crabgrass (Digitaria sanguinalis, DIGSA); experiment: as above; settings: post-emerge, 14 days after application, rating scale 0-100
Summary of the method: as §1

[9] = test system: green foxtail (Setaria viridis, SETVI); experiment: as above; settings: post-emerge, 14 days after application, rating scale 0-100
Summary of the method: as §1

[10] = test system: field corn (Zea mays L., var. Dekalb 535, CORN); experiment: Post-emerge test, crop safety; settings: post-emerge, 14 days after application, rating scale 0-100
Summary of the method: as §1

[11] = test system: upland rice (Oryza sp., var. Tebonnet, RICE); experiment: Post-emerge test, crop safety; settings: post-emerge, 14 days after application, rating scale 0-100
Summary of the method: as §1

[12] = test system: field corn (Zea mays L., var. Dekalb 535, CORN); experiment: Pre-emerge test, crop safety; settings: for Pre-emerge phytotoxicity rating (0-100), crop damage, CORN: rated 14 days after application, 0 = no damage, 100 = complete death; for phytotoxicity rating CORN: pre-emerge, 14 days after application, rating scale 0-100
Summary of the method: (§2)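 Sandy loam pots; pre-emerge: sown 1 d pre-spray, surface-watered after, then bottom-watered. Post-emerge: sown 8–21 d before, 2–3 leaf stage, + 0.25% v/v NIS, bottom-watered. Acetone, 187 l/ha track spray, 15–1000 g ai/ha. 0–100 injury score, day 14.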

[13] = test system: upland rice (Oryza sp., var. Tebonnet, RICE); experiment: Pre-emerge test, crop safety; settings: for Pre-emerge phytotoxicity rating (0-100), crop damage, RICE: rated 14 days after application, 0 = no damage, 100 = complete death; for phytotoxicity rating RICE: pre-emerge, 14 days after application, rating scale 0-100
Summary of the method: as §2

[14] = test system: redroot pigweed (Amaranthus retroflexus, AMARE); experiment: Pre-emerge test, greenhouse herbicide activity screening; settings: for Pre-emerge Herbicidal Activity, phytotoxicity rating (0-100), AMARE: rated 14 days after application, 0 = no damage, 100 = complete death; for phytotoxicity rating AMARE: pre-emerge, 14 days after application, rating scale 0-100
Summary of the method: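 Compounds in acetone were track-sprayed at 15-1000 g ai/ha (187 l/ha) on sandy loam pots: pre-emerge one day after seeding, post-emerge at 2-3 leaf stage with 0.25% v/v non-ionic surfactant. Phytotoxicity was rated 14 days later on a 0 (no damage) to 100 (complete death) scale.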

[15] = test system: sicklepod (Cassia obtusifolia, CASOB); experiment: as above; settings: for Pre-emerge Herbicidal Activity, phytotoxicity rating (0-100), CASOB: rated 14 days after application, 0 = no damage, 100 = complete death; for phytotoxicity rating CASOB: pre-emerge, 14 days after application, rating scale 0-100
Summary of the method: as §1

[16] = test system: johnsongrass (Sorghum halepense, SORHA); experiment: as above; settings: for Pre-emerge Herbicidal Activity, phytotoxicity rating (0-100), SORHA: rated 14 days after application, 0 = no damage, 100 = complete death; for phytotoxicity rating SORHA: pre-emerge, 14 days after application, rating scale 0-100
Summary of the method: as §1

[17] = test system: ivyleaf morningglory (Ipomoea hederacea, IPOHE); experiment: as above; settings: for Pre-emerge Herbicidal Activity, phytotoxicity rating (0-100), IPOHE: rated 14 days after application, 0 = no damage, 100 = complete death; for phytotoxicity rating IPOHE: pre-emerge, 14 days after application, rating scale 0-100
Summary of the method: as §1

[18] = test system: barnyardgrass (Echinochloa crus-galli, ECHCG); experiment: as above; settings: for Pre-emerge Herbicidal Activity, phytotoxicity rating (0-100), ECHCG: rated 14 days after application, 0 = no damage, 100 = complete death; for phytotoxicity rating ECHCG: pre-emerge, 14 days after application, rating scale 0-100
Summary of the method: as §1

[19] = test system: lambsquarters (Chenopodium album, CHEAL); experiment: as above; settings: for Pre-emerge Herbicidal Activity, phytotoxicity rating (0-100), CHEAL: rated 14 days after application, 0 = no damage, 100 = complete death; for phytotoxicity rating CHEAL: pre-emerge, 14 days after application, rating scale 0-100
Summary of the method: as §1

[20] = test system: velvetleaf (Abutilon theophrasti, ABUTH); experiment: as above; settings: for Pre-emerge Herbicidal Activity, phytotoxicity rating (0-100), ABUTH: rated 14 days after application, 0 = no damage, 100 = complete death; for phytotoxicity rating ABUTH: pre-emerge, 14 days after application, rating scale 0-100
Summary of the method: as §1

[21] = test system: large crabgrass (Digitaria sanguinalis, DIGSA); experiment: as above; settings: for Pre-emerge Herbicidal Activity, phytotoxicity rating (0-100), DIGSA: rated 14 days after application, 0 = no damage, 100 = complete death; for phytotoxicity rating DIGSA: pre-emerge, 14 days after application, rating scale 0-100
Summary of the method: as §1

[22] = test system: green foxtail (Setaria viridis, SETVI); experiment: as above; settings: for Pre-emerge Herbicidal Activity, phytotoxicity rating (0-100), SETVI: rated 14 days after application, 0 = no damage, 100 = complete death; for phytotoxicity rating SETVI: pre-emerge, 14 days after application, rating scale 0-100
Summary of the method: as §1

[23] = 250 g ai/ha, rating scale 0-100

## COc1c(Cl)cc(F)c(-n2c(=O)cc(C(F)(F)F)n(C)c2=O)c1N(C(=O)COc1ccccc1)C(=O)COc1ccccc1 [2-120]
[1]; 63 g ai/ha
  phytotoxicity rating CASOB: 40
[1]; 250 g ai/ha
  phytotoxicity rating CASOB: 30
[2]; 63 g ai/ha
  phytotoxicity rating SORHA: 40
[2]; 250 g ai/ha
  phytotoxicity rating SORHA: 50
[3]; 63 g ai/ha, rating scale 0-100
  phytotoxicity rating AMARE: 90
[3]; [23]
  phytotoxicity rating AMARE: 100
[4]; 63 g ai/ha
  phytotoxicity rating IPOHE: 100
[4]; 250 g ai/ha
  phytotoxicity rating IPOHE: 100
[5]; 63 g ai/ha
  phytotoxicity rating ECHCG: 40
[5]; 250 g ai/ha
  phytotoxicity rating ECHCG: 30
[6]; 63 g ai/ha
  phytotoxicity rating CHEAL: 80
[6]; 250 g ai/ha
  phytotoxicity rating CHEAL: 80
[7]; 63 g ai/ha
  phytotoxicity rating ABUTH: 100
[7]; 250 g ai/ha
  phytotoxicity rating ABUTH: 100
[8]; 63 g ai/ha
  phytotoxicity rating DIGSA: 10
[8]; 250 g ai/ha
  phytotoxicity rating DIGSA: 60
[9]; 63 g ai/ha
  phytotoxicity rating SETVI: 20
[9]; 250 g ai/ha
  phytotoxicity rating SETVI: 60
[10]; 63 g ai/ha
  phytotoxicity rating CORN: 50
[10]; 250 g ai/ha
  phytotoxicity rating CORN: 70
[11]; 63 g ai/ha
  phytotoxicity rating RICE: 50
[11]; 250 g ai/ha
  phytotoxicity rating RICE: 90
[12]; 63 g ai/ha
  Pre-emerge phytotoxicity rating (0-100), crop damage, CORN: 0
[12]; 250 g ai/ha
  Pre-emerge phytotoxicity rating (0-100), crop damage, CORN: 90
[13]; 63 g ai/ha
  Pre-emerge phytotoxicity rating (0-100), crop damage, RICE: 80
[13]; 250 g ai/ha
  Pre-emerge phytotoxicity rating (0-100), crop damage, RICE: 95
[14]; 63 g ai/ha
  Pre-emerge Herbicidal Activity, phytotoxicity rating (0-100), AMARE: 90
[14]; 250 g ai/ha
  Pre-emerge Herbicidal Activity, phytotoxicity rating (0-100), AMARE: 100
[15]; 63 g ai/ha
  Pre-emerge Herbicidal Activity, phytotoxicity rating (0-100), CASOB: 40
[15]; 250 g ai/ha
  Pre-emerge Herbicidal Activity, phytotoxicity rating (0-100), CASOB: 70
[16]; 63 g ai/ha
  Pre-emerge Herbicidal Activity, phytotoxicity rating (0-100), SORHA: 50
[16]; 250 g ai/ha
  Pre-emerge Herbicidal Activity, phytotoxicity rating (0-100), SORHA: 95
[17]; 63 g ai/ha
  Pre-emerge Herbicidal Activity, phytotoxicity rating (0-100), IPOHE: 50
[17]; 250 g ai/ha
  Pre-emerge Herbicidal Activity, phytotoxicity rating (0-100), IPOHE: 80
[18]; 63 g ai/ha
  Pre-emerge Herbicidal Activity, phytotoxicity rating (0-100), ECHCG: 60
[18]; 250 g ai/ha
  Pre-emerge Herbicidal Activity, phytotoxicity rating (0-100), ECHCG: 90
[19]; 63 g ai/ha
  Pre-emerge Herbicidal Activity, phytotoxicity rating (0-100), CHEAL: 100
[19]; 250 g ai/ha
  Pre-emerge Herbicidal Activity, phytotoxicity rating (0-100), CHEAL: 100
[20]; 63 g ai/ha
  Pre-emerge Herbicidal Activity, phytotoxicity rating (0-100), ABUTH: 100
[20]; 250 g ai/ha
  Pre-emerge Herbicidal Activity, phytotoxicity rating (0-100), ABUTH: 100
[21]; 63 g ai/ha
  Pre-emerge Herbicidal Activity, phytotoxicity rating (0-100), DIGSA: 80
[21]; 250 g ai/ha
  Pre-emerge Herbicidal Activity, phytotoxicity rating (0-100), DIGSA: 100
[22]; 63 g ai/ha
  Pre-emerge Herbicidal Activity, phytotoxicity rating (0-100), SETVI: 70
[22]; 250 g ai/ha
  Pre-emerge Herbicidal Activity, phytotoxicity rating (0-100), SETVI: 100

## Cn1c(C(F)(F)F)cc(=O)n(-c2ccc(Cl)cc2/C=C/c2ccc3ccccc3c2)c1=O [14-59]
[1]; 63 g ai/ha
  Post-emerge Herbicidal Activity CASOB (phytotoxicity rating): 0
[1]; 250 g ai/ha
  Post-emerge Herbicidal Activity CASOB (phytotoxicity rating): 10
[2]; 63 g ai/ha
  Post-emerge Herbicidal Activity SORHA (phytotoxicity rating): 0
[2]; 250 g ai/ha
  Post-emerge Herbicidal Activity SORHA (phytotoxicity rating): 0
[3]; 63 g ai/ha, rating scale 0-100 (0 no damage, 100 complete death)
  Post-emerge Herbicidal Activity AMARE (phytotoxicity rating): 20
[3]; [23]
  Post-emerge Herbicidal Activity AMARE (phytotoxicity rating): 20
[4]; 63 g ai/ha
  Post-emerge Herbicidal Activity IPOHE (phytotoxicity rating): 30
[4]; 250 g ai/ha
  Post-emerge Herbicidal Activity IPOHE (phytotoxicity rating): 30
[5]; 63 g ai/ha
  Post-emerge Herbicidal Activity ECHCG (phytotoxicity rating): 0
[5]; 250 g ai/ha
  Post-emerge Herbicidal Activity ECHCG (phytotoxicity rating): 0
[6]; 63 g ai/ha
  Post-emerge Herbicidal Activity CHEAL (phytotoxicity rating): 10
[6]; 250 g ai/ha
  Post-emerge Herbicidal Activity CHEAL (phytotoxicity rating): 10
[7]; 63 g ai/ha
  Post-emerge Herbicidal Activity ABUTH (phytotoxicity rating): 50
[7]; 250 g ai/ha
  Post-emerge Herbicidal Activity ABUTH (phytotoxicity rating): 30
[8]; 63 g ai/ha
  Post-emerge Herbicidal Activity DIGSA (phytotoxicity rating): 0
[8]; 250 g ai/ha
  Post-emerge Herbicidal Activity DIGSA (phytotoxicity rating): 0
[9]; 63 g ai/ha
  Post-emerge Herbicidal Activity SETVI (phytotoxicity rating): 0
[9]; 250 g ai/ha
  Post-emerge Herbicidal Activity SETVI (phytotoxicity rating): 0
[10]; 63 g ai/ha
  Post-emerge Herbicidal Activity CORN (crop damage rating): 0
[10]; 250 g ai/ha
  Post-emerge Herbicidal Activity CORN (crop damage rating): 0
[11]; 63 g ai/ha
  Post-emerge Herbicidal Activity RICE (crop damage rating): 0
[11]; 250 g ai/ha
  Post-emerge Herbicidal Activity RICE (crop damage rating): 0
[12]; 63 g ai/ha
  phytotoxicity rating CORN: 0
[12]; 250 g ai/ha
  phytotoxicity rating CORN: 0
[13]; 63 g ai/ha
  phytotoxicity rating RICE: 0
[13]; 250 g ai/ha
  phytotoxicity rating RICE: 0
[14]; 63 g ai/ha
  phytotoxicity rating AMARE: 0
[14]; 250 g ai/ha
  phytotoxicity rating AMARE: 0
[15]; 63 g ai/ha
  phytotoxicity rating CASOB: 0
[15]; 250 g ai/ha
  phytotoxicity rating CASOB: 0
[16]; 63 g ai/ha
  phytotoxicity rating SORHA: 0
[16]; 250 g ai/ha
  phytotoxicity rating SORHA: 0
[17]; 63 g ai/ha
  phytotoxicity rating IPOHE: 0
[17]; 250 g ai/ha
  phytotoxicity rating IPOHE: 0
[18]; 63 g ai/ha
  phytotoxicity rating ECHCG: 0
[18]; 250 g ai/ha
  phytotoxicity rating ECHCG: 0
[19]; 63 g ai/ha
  phytotoxicity rating CHEAL: 40
[19]; 250 g ai/ha
  phytotoxicity rating CHEAL: 0
[20]; 63 g ai/ha
  phytotoxicity rating ABUTH: 0
[20]; 250 g ai/ha
  phytotoxicity rating ABUTH: 0
[21]; 63 g ai/ha
  phytotoxicity rating DIGSA: 0
[21]; 250 g ai/ha
  phytotoxicity rating DIGSA: 0
[22]; 63 g ai/ha
  phytotoxicity rating SETVI: 0
[22]; 250 g ai/ha
  phytotoxicity rating SETVI: 0
